Assay results taken from patent publication US6391325B1, “Use of nitrogen-containing complexing agents for deodorization and antimicrobial treatment of the skin and textile fibre materials” (Ciba Specialty Chemicals Corporation, priority 1996, dated 2002).

Tests used:
[1] = test system: Corynebacterium xerosis ATCC 373; experiment: Agar diffusion test (caso-agar, stamped-out holes); type: cell-based; details: for Inhibitory aureola diameter Cory. xerosis ATTC 373: 10000 ppm, 100 μl per hole in double-distilled water, 37° C. for 2 days, two values per cell
Experimental: (§1) Test method: An agar diffusion test is carried out with the following modifications: Medium: casein-soya flour peptone agar (caso-agar) Test organisms: Corynebacterium xerosis ATCC 373 Corynebacterium xerosis ATCC 7711 Corynebacterium minutissimum ATCC 23358 Procedure: 500 ml of caso-agar are innoculated with 3.5 ml of an overnight culture of the bacteria, diluted 1:100, and caso plates (18 ml) are covered with a layer of about 5 ml of the bacteria-containing agar. […] Each stamped-out hole is filled with in each case 100 μl of a test substance dilution and the plates are incubated at 37° C. for 2 days. Double-distilled water is employed as the solvent for all the substances. In the case of […], the pH is adjusted to 3.3 by addition of 1 N NaOH. Chemically prepared S,S-EDDS is adjusted to the pH of 5.6 by addition of 1 N NaOH. Controls: Double-distilled water

[2] = test system: Corynebacterium xerosis ATCC 7711; experiment: Agar diffusion test (caso-agar, stamped-out holes); type: cell-based; details: 10000 ppm, 100 μl per hole in double-distilled water, 37° C. for 2 days; two values per cell
Experimental: as §1

Structure (SMILES)	Inhibitory aureola diameter Cory. xerosis ATTC 373 [1]	bacteriostatic action against Corynebacterium xerosis ([1]; summary in words of Table 1 (both strains))	Inhibitory aureola diameter Cory. xerosis ATTC 7711 [2]
O=C(O)CN(CCN(CC(=O)O)CC(=O)O)CC(=O)O [EDTA, ethylenediaminetetraacetic acid, reference compound]	5/5	pronounced bacteriostatic action	2/2
O=C(O)C[C@H](NCCN[C@@H](CC(=O)O)C(=O)O)C(=O)O [R,R-EDDS, ethylenediaminedisuccinic acid]	15/15		
O=C(O)C[C@H](NCCN[C@@H](CC(=O)O)C(=O)O)C(=O)O [S,S-EDDS (prepared by fermentation), (S,S)-N,N′-ethylenediaminedisuccinic acid]	10/10^1		15/15^1
